Laboratory results published in PubChem BioAssay AID2060601 (Molecular Pharmacology Branch, DTP, NCI, 2025).
pIC50: −log10 of the molar value. Values joined by “and” are separate entries in the source; they are usually repeats but may differ in a detail not shown here. Identical values can stand only once.

Test system: 874868-142-R-J2-PDC complex spheroids, growth % test/control
Experiment: Anticancer human tumor 874868-142-R-J2-PDC patient-derived head and neck squamous carcinoma cell line growth inhibition [CLK]
Conditions: for viability, T/C: stronger effect = lower value
Method in brief: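 Patient-derived tumor cells grown as complex spheroids with HUVEC endothelial cells and mesenchymal stem cells, treated with drug combinations. Concentrations descend in half-log steps from near clinical Cmax, or from 10 microM if Cmax unknown.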

[1] = curve of first compound, second compound 0.0316 µM
[2] = curve of first compound, second compound 0.1 µM
[3] = curve of first compound, second compound 0.316 µM
[4] = curve of first compound, second compound 1 µM
[5] = curve of first compound, second compound 3.16 µM
[6] = curve of first compound, second compound 10 µM
[7] = second compound 0.0316 µM, first compound 0.0316 µM
[8] = second compound 0.0316 µM, first compound 0.1 µM
[9] = second compound 0.0316 µM, first compound 0.316 µM
[10] = second compound 0.0316 µM, first compound 1 µM
[11] = second compound 0.0316 µM, first compound 3.16 µM
[12] = second compound 0.0316 µM, first compound 10 µM
[13] = second compound 0.1 µM, first compound 0.0316 µM
[14] = second compound 0.1 µM, first compound 0.1 µM
[15] = second compound 0.1 µM, first compound 0.316 µM
[16] = second compound 0.1 µM, first compound 1 µM
[17] = second compound 0.1 µM, first compound 3.16 µM
[18] = second compound 0.1 µM, first compound 10 µM
[19] = second compound 0.316 µM, first compound 0.0316 µM
[20] = second compound 0.316 µM, first compound 0.1 µM
[21] = second compound 0.316 µM, first compound 0.316 µM
[22] = second compound 0.316 µM, first compound 1 µM
[23] = second compound 0.316 µM, first compound 3.16 µM
[24] = second compound 0.316 µM, first compound 10 µM
[25] = second compound 1 µM, first compound 0.0316 µM
[26] = second compound 1 µM, first compound 0.1 µM
[27] = second compound 1 µM, first compound 0.316 µM
[28] = second compound 1 µM, first compound 1 µM
[29] = second compound 1 µM, first compound 3.16 µM
[30] = second compound 1 µM, first compound 10 µM
[31] = second compound 3.16 µM, first compound 0.0316 µM
[32] = second compound 3.16 µM, first compound 0.1 µM
[33] = second compound 3.16 µM, first compound 0.316 µM
[34] = second compound 3.16 µM, first compound 1 µM
[35] = second compound 3.16 µM, first compound 3.16 µM
[36] = second compound 3.16 µM, first compound 10 µM
[37] = second compound 10 µM, first compound 0.0316 µM
[38] = second compound 10 µM, first compound 0.1 µM
[39] = second compound 10 µM, first compound 0.316 µM
[40] = second compound 10 µM, first compound 1 µM
[41] = second compound 10 µM, first compound 3.16 µM
[42] = second compound 10 µM, first compound 10 µM
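Note: spheroids exposed to the compounds for 7 days.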
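Throughout, for viability, T/C: 100% = DMSO vehicle control viability.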

CC1(C)CCC(CN2CCN(c3ccc(C(=O)NS(=O)(=O)c4ccc(NCC5CCOCC5)c([N+](=O)[O-])c4)c(Oc4cnc5[nH]ccc5c4)c3)CC2)=C(c2ccc(Cl)cc2)C1
viability, T/C (compound 0.0316 µM): 79.2% and 90.1%
viability, T/C (compound 0.1 µM): 104% and 95.1%
viability, T/C (compound 0.316 µM): 97.9% and 100%
viability, T/C (compound 1 µM): 101% and 91.3%
viability, T/C (compound 3.16 µM): 93% and 97.6%
viability, T/C (compound 10 µM): 84.1% and 44%
pIC50 (curve of compound): < 5.00 and 5.06

Nc1ccn(C2OC(CO)C(O)C2(F)F)c(=O)n1 (stereo unspecified) + CNC(=O)c1ccc(Nc2nc(OC3CCCC3)c3c(-c4ccc5nc(C)oc5c4)c[nH]c3n2)c(OC)c1
pIC50 [1]: 6.19
pIC50 [2]: 6.29
pIC50 [3]: 6.79
pIC50 [4]: > 7.50
pIC50 [5]: > 7.50
pIC50 [6]: > 7.50
viability, T/C [7]: 108%
viability, T/C [8]: 80.2%
viability, T/C [9]: 56.3%
viability, T/C [10]: 46.7%
viability, T/C [11]: 41.6%
viability, T/C [12]: 43.5%
viability, T/C [13]: 80.6%
viability, T/C [14]: 97.9%
viability, T/C [15]: 57.8%
viability, T/C [16]: 42.3%
viability, T/C [17]: 42.9%
viability, T/C [18]: 33.8%
viability, T/C [19]: 56.4%
viability, T/C [20]: 53.7%
viability, T/C [21]: 48%
viability, T/C [22]: 35.3%
viability, T/C [23]: 35%
viability, T/C [24]: 22.3%
viability, T/C [25]: 42.9%
viability, T/C [26]: 37.5%
viability, T/C [27]: 33.6%
viability, T/C [28]: 23.1%
viability, T/C [29]: 26.2%
viability, T/C [30]: 18%
viability, T/C [31]: 40%
viability, T/C [32]: 42.1%
viability, T/C [33]: 30.3%
viability, T/C [34]: 23.8%
viability, T/C [35]: 22.7%
viability, T/C [36]: 16.5%
viability, T/C [37]: 39.2%
viability, T/C [38]: 36.8%
viability, T/C [39]: 33.7%
viability, T/C [40]: 25.5%
viability, T/C [41]: 19.4%
viability, T/C [42]: 23.1%

C#Cc1c(F)ccc2cc(O)cc(-c3ncc4c(N5CC6CCC(C5)N6)nc(OCC56CCCN5CC(F)C6)nc4c3F)c12 (stereo unspecified)
viability, T/C (compound 0.0316 µM): 87.8% and 104%
viability, T/C (compound 0.1 µM): 90.5% and 95.1%
viability, T/C (compound 0.316 µM): 85.1% and 93.7%
viability, T/C (compound 1 µM): 82.3% and 61%
viability, T/C (compound 3.16 µM): 61.4% and 59%
viability, T/C (compound 10 µM): 49.3% and 46%
pIC50 (curve of compound): 5.03 and < 5.00

O=C(c1cc(Cc2n[nH]c(=O)c3ccccc23)ccc1F)N1CCN(C(=O)C2CC2)CC1 + CNC(=O)c1ccc(Nc2nc(OC3CCCC3)c3c(-c4ccc5nc(C)oc5c4)c[nH]c3n2)c(OC)c1
pIC50 [1]: < 5.00
pIC50 [2]: < 5.00
pIC50 [3]: < 5.00
pIC50 [4]: > 7.50
pIC50 [5]: > 7.50
pIC50 [6]: > 7.50
viability, T/C [7]: 86.5%
viability, T/C [8]: 90.7%
viability, T/C [9]: 115%
viability, T/C [10]: 81.4%
viability, T/C [11]: 91.8%
viability, T/C [12]: 75.6%
viability, T/C [13]: 98.9%
viability, T/C [14]: 76.5%
viability, T/C [15]: 93.7%
viability, T/C [16]: 87%
viability, T/C [17]: 70.7%
viability, T/C [18]: 73.4%
viability, T/C [19]: 54%
viability, T/C [20]: 54.5%
viability, T/C [21]: 60.8%
viability, T/C [22]: 45.9%
viability, T/C [23]: 61%
viability, T/C [24]: 55.6%
viability, T/C [25]: 42.2%
viability, T/C [26]: 40.9%
viability, T/C [27]: 42.3%
viability, T/C [28]: 41.1%
viability, T/C [29]: 39.7%
viability, T/C [30]: 41.4%
viability, T/C [31]: 41.4%
viability, T/C [32]: 48.8%
viability, T/C [33]: 48.8%
viability, T/C [34]: 41%
viability, T/C [35]: 50.3%
viability, T/C [36]: 46.2%
viability, T/C [37]: 38.3%
viability, T/C [38]: 48.4%
viability, T/C [39]: 42.7%
viability, T/C [40]: 41.8%
viability, T/C [41]: 43.3%
viability, T/C [42]: 42.2%

Cn1ncnc1[C@H]1c2n[nH]c(=O)c3cc(F)cc(c23)N[C@@H]1c1ccc(F)cc1
viability, T/C (compound 0.000316 µM): 115% and 86.3%
viability, T/C (compound 0.001 µM): 96.7% and 94.6%
viability, T/C (compound 0.00316 µM): 93.1% and 98.7%
viability, T/C (compound 0.01 µM): 92.4% and 87.5%
viability, T/C (compound 0.0316 µM): 73.8% and 87%
viability, T/C (compound 0.1 µM): 69.2% and 77.6%
pIC50 (curve of compound): < 7.00

C=C(F)C(=O)N1CCN(c2nc(OCC3CCCN3C)nc3c2CCN(c2cccc4cccc(Cl)c24)C3)CC1CC#N (stereo unspecified) + CN1CCN(c2cc(C(=O)Nc3cc4cc(-c5cnn(C)c5)ccc4cn3)ccn2)CC1
pIC50 [1]: 5.38
pIC50 [2]: 5.55
pIC50 [3]: > 7.50
pIC50 [4]: > 7.50
pIC50 [5]: > 7.50
pIC50 [6]: > 7.50
viability, T/C [7]: 99.9%
viability, T/C [8]: 85.3%
viability, T/C [9]: 92%
viability, T/C [10]: 93.2%
viability, T/C [11]: 60.8%
viability, T/C [12]: 15.7%
viability, T/C [13]: 69.1%
viability, T/C [14]: 70%
viability, T/C [15]: 75%
viability, T/C [16]: 62%
viability, T/C [17]: 48.8%
viability, T/C [18]: 4.16%
viability, T/C [19]: 16.7%
viability, T/C [20]: 17.8%
viability, T/C [21]: 22.6%
viability, T/C [22]: 16.4%
viability, T/C [23]: 23.8%
viability, T/C [24]: 0.16%
viability, T/C [25]: 0.51%
viability, T/C [26]: 0.57%
viability, T/C [27]: 2.72%
viability, T/C [28]: 0.61%
viability, T/C [29]: 0.21%
viability, T/C [30]: 0.13%
viability, T/C [31]: 0.32%
viability, T/C [32]: 0.27%
viability, T/C [33]: 0.26%
viability, T/C [34]: 0.45%
viability, T/C [35]: 1.88%
viability, T/C [36]: 0.15%
viability, T/C [37]: 0.24%
viability, T/C [38]: 0.24%
viability, T/C [39]: 2.62%
viability, T/C [40]: 0.28%
viability, T/C [41]: 0.53%
viability, T/C [42]: 0.23%

C=CC(=O)N1CCN(c2nc(=O)n(-c3c(C)ccnc3C(C)C)c3nc(-c4c(O)cccc4F)c(F)cc23)C(C)C1 (stereo unspecified) + CNC(=O)c1ccc(Nc2nc(OC3CCCC3)c3c(-c4ccc5nc(C)oc5c4)c[nH]c3n2)c(OC)c1
pIC50 [1]: < 5.00
pIC50 [2]: < 5.00
pIC50 [3]: < 5.00
pIC50 [4]: > 7.50
pIC50 [5]: > 7.50
pIC50 [6]: > 7.50
viability, T/C [7]: 99.7%
viability, T/C [8]: 82.6%
viability, T/C [9]: 96.6%
viability, T/C [10]: 108%
viability, T/C [11]: 124%
viability, T/C [12]: 103%
viability, T/C [13]: 82.7%
viability, T/C [14]: 91.5%
viability, T/C [15]: 90.3%
viability, T/C [16]: 92.1%
viability, T/C [17]: 101%
viability, T/C [18]: 88%
viability, T/C [19]: 50.4%
viability, T/C [20]: 59.7%
viability, T/C [21]: 56.9%
viability, T/C [22]: 53.4%
viability, T/C [23]: 59%
viability, T/C [24]: 58.3%
viability, T/C [25]: 40.6%
viability, T/C [26]: 47.7%
viability, T/C [27]: 36.3%
viability, T/C [28]: 46.1%
viability, T/C [29]: 41.2%
viability, T/C [30]: 40.6%
viability, T/C [31]: 42.8%
viability, T/C [32]: 39.2%
viability, T/C [33]: 41.1%
viability, T/C [34]: 45.2%
viability, T/C [35]: 53%
viability, T/C [36]: 36.4%
viability, T/C [37]: 31.3%
viability, T/C [38]: 33.5%
viability, T/C [39]: 35.4%
viability, T/C [40]: 41%
viability, T/C [41]: 40%
viability, T/C [42]: 28.3%

O=C(c1cc(Cc2n[nH]c(=O)c3ccccc23)ccc1F)N1CCN(C(=O)C2CC2)CC1
viability, T/C (compound 0.0316 µM): 102% and 97.1%
viability, T/C (compound 0.1 µM): 113% and 78.1%
viability, T/C (compound 0.316 µM): 95.2% and 74.9%
viability, T/C (compound 1 µM): 91.5% and 85.1%
viability, T/C (compound 3.16 µM): 86.9% and 76.4%
viability, T/C (compound 10 µM): 83.9% and 71.1%
pIC50 (curve of compound): < 5.00
